Experimental data as given in patent US20240299566A1, “POLY-ARGININE DERIVATIVES FOR ENHANCING BRAIN-DERIVED GROWTH FACTOR TO MITIGATE NEUROLOGICAL DISORDERS” (priority 2021, published 2024).
“Also recorded” adds a separate entry of the source.

What was measured:
[1] = test system: repeated corticosterone-injected mice; assay: Forced Swim Test in repeated corticosterone-injected mice; format: in vivo; conditions: single i.v. injection 1 mg/kg, day 7 after injection
Text: FIG. 3A is a scatter plot showing immobility time of control mice or depressed mice during a Forced Swim Test, 7 days after injection of vehicle or Compounds of Formula (IV), where *P<0.001 vs. control mice.
(§1) Preclinical identification of fast-onset antidepressants requires animal models that can accurately predict the delay to therapeutic onset. […] This has led to the approval of SPRAVATO® (esketamine), a ketamine-derived drug which is the first antidepressant with a novel mechanism of action approved in decades. The neurobiological changes believed to underlie depressive symptomatology have been reliably characterized using exogenous corticosterone (CORT) administration e.g. dendritic atrophy in hippocampal pyramidal cells with loss of CA3 and CA1 apical dendrites. […] Mice then received a single injection of compounds of Formula (IV) (1 mg/kg) or Vehicle (0.9% NaCl). Day 7 after injection of compounds of Formula (IV), immobility times in the FST and TST were tested as described. #P<0.001 vs. control mice.

ischemic episode = assay: Proposed treatment of patient with ischemia; format: in vivo, human; conditions: 50 mg/Kg i.v. within 2 hours of onset; outcome within 48 hours
Method: A person presents with an ischemic episode resulting sudden numbness the face, and left arm, confusion, and trouble speaking. […] Doses of from about 1 to about 100 mg/Kg will be used.

[2] = test system: SH-SY5Y cells transfected with HA-TrkB; assay: BDNF-stimulated TrkB signaling, western blot with phospho-specific antibodies; format: cell-based; conditions: 1 μM, FIG. 1D
Method: FIG. 1A depicts western blots probed with phospho-specific antibodies against p-MTOR, p-Erk and p-S6 from SHSY5Y cells transfected with TrkB and stimulated with 30 ng/ml BDNF. Blots depict expression before (0′), or 15 or 60 minutes (15′ and 60′) after BDNF stimulation.
SH-SY5Y cells were transfected with HA-TrkB. Following transfection, cells were starved in MEM for 3 hours. In the last 90 minutes of starvation, cells were treated with compounds of Formula (IV) or CN-2097 (shown below) at 1 μM and 5 μM. In the last hour of starvation, cells were stimulated with BDNF. Western blots probed with phospho-specific antibodies against p-MTOR, p-Erk and p-S6 (FIG. 1A).

[3] = test system: repeated corticosterone-injected mice; assay: Tail Suspension Test in repeated corticosterone-injected mice; format: in vivo; conditions: single i.v. injection 1 mg/kg, day 7 after injection
Text: FIG. 3B is a scatter plot showing immobility time of control mice or depressed mice during a Tail Suspension Test, 7 days after injection of vehicle or Compounds of Formula (IV), *P<0.001 vs. control mice.
as §1

[4] = test system: Angelman syndrome (AS) mice; assay: Hippocampal LTP (field EPSP slopes, CA1) in Angelman syndrome mice after IP injection; format: in vivo; conditions: for LTP (field EPSP slopes, CA1 region of hippocampus): IP, AS mice
Method: Field EPSP slopes were recorded in the CA1 region of the hippocampus.
Electrophysiological recordings and data analysis were performed as described in Cao et al., 2013 (Impairment of TrkB-PSD-95 Signaling in Angelman Syndrome. PLoS Biol 11, e1001478 (2013). Coronal brain slices (350 μm) were maintained in an interface chamber containing oxygenated artificial cerebral spinal fluid (ACSF) for at least 1 h before use. Slices were transferred to a submersion recording chamber perfused with oxygenated ACSF at 2 ml/min. Extracellular postsynaptic field potentials (fEPSPs) were performed by placing electrodes (borosilicate glass, resistance <1 MΩ) in the CA1 stratum radiatum and synaptic responses elicited by stimulation of the Schaffer Collaterals using concentric bipolar stimulation electrodes and recorded using an AxoClamp2B amplifier (Axon instruments) and EX1 differential amplifier (Dagan), and digitized at 10 kHz. Data were acquired using Igor Pro (Wave Metrics) and Neuromatic (neuromatic.thinkrandom.com). LTP was induced by high frequency stimulation (2×HFS for is at 100 Hz separated by 20 s) of Schaffer collateral afferents and LTP values are expressed as percentage of baseline±SEM. Paired two-tailed t-tests were used for statistical analysis.

IL-1β = assay: Inflammatory cytokine expression in CORT behavioral model of depression; format: in vivo, mice; conditions: acute injection, FIG. 4A
Text: A major breakthrough in our understanding of the mechanistic basis for depression is the “inflammatory hypothesis”.

microglia = assay: Microglia morphology in CORT mouse model of depression; format: in vivo, mice; conditions: acute injection, FIG. 4C
Text: Microglial cells are capable of influencing complex moods, synaptic plasticity, neurogenesis, and memory. […] Classically activated, pro-inflammatory microglia phenotypes (termed M1-like), often release inflammatory mediators that result in severely injured tissue. Alternatively activated, anti-inflammatory microglial phenotypes (termed M2-like) are neuroprotective in function and promote the survival of new neurons. In a healthy brain, most microglial cells are in a resting state. The morphology of resting microglia is poly-branched with many fine branches and a smaller cytoplasm, compared to active microglia that display an increased soma size and more irregular shape of their cell body. Activation of microglia results in the release of pro-inflammatory factors, namely IL-1β, TNFα and IL-6.

With `CC(C)C(NC(=O)C1CCC(=O)NCCC(=O)NCCCCC(NC(=O)C(CCC(N)=O)NC(=O)C(NC(=O)C(Cc2c[nH]c3ccccc23)NC(=O)C2CCCN2C(=O)C2CCCN2C(=O)C(Cc2ccccc2)NC(=O)C(CO)NC(=O)CNC(=O)C(N)CSSCC(N)C(=O)NC(CCCNC(=N)N)C(=O)NC(CCCNC(=N)N)C(=O)NC(CCCNC(=N)N)C(=O)NC(CCCNC(=N)N)C(=O)NC(CCCNC(=N)N)C(=O)NC(CCCNC(=N)N)C(=O)NC(CCCNC(=N)N)C(N)=O)C(C)C)C(=O)NC(C(C)O)C(=O)N1)C(=O)O` (centres unmarked) [Formula (IV)] the “immobility time in Forced Swim Test” value [1] was “reduced the duration of immobility time”, the “patient outcome after ischemic episode” value (ischemic episode) was “recovers without significant brain damage” and the p-S6 activity ([2]; BDNF stimulation) was “enhanced p-S6 activity”. For the same molecule, the “dose enhancing p-S6 activity, fold lower compared to CN2097” value [2] was 5 fold, the “immobility time in Tail Suspension Test” value [3] was “reduced the duration of immobility time” and the “restoration of hippocampal LTP, dose compared to CN2097” value ([4]; Angelman mouse model, FIG. 2A-2C) was “restored hippocampal LTP in an Angelman mouse model at a significantly lower dose as compared to CN2097”. The “LTP (field EPSP slopes, CA1 region of hippocampus)” value ([4]; 0.5 mg/kg) was “resulted in LTP; also recorded: LTP was observed”, the “LTP (field EPSP slopes, CA1 region of hippocampus)” value ([4]; 1 mg/kg) was “LTP was observed” and the “LTP (field EPSP slopes, CA1 region of hippocampus)” value ([4]; 2 mg/kg) was “LTP was observed”. For the same molecule, the IL-1β expression (IL-1β) was “blocks the increased expression of IL-1β” and the microglia phenotype (microglia) was “switches microglia from an active form (CORT depression) to the resting phenotype”.
